Converted amounts (≈) assume the structure as drawn. Positions of bridges follow the written chain, without caps; N, C: chain ends. Non-standard residues stand in square brackets, D forms with d. Residues, ends and D or L forms follow the SMILES beside them. Dab = NCC[C@H](N)C(=O)O
Key:
[1] = test system: Botrytis cinerea T4; assay type: cell-based
[2] = test system: Fusarium graminearum PH-1; assay type: cell-based; details: for F. graminearum PH-1 MIC Day 1: Fusarium graminearum PH-1, 96-well, resazurin viability
[3] = test system: F. oxysporum; test: MIC antifungal assay in SFM culture media; assay type: cell-based; details: in vitro, low cationic conditions
[4] = test system: P. capsici; test: MIC antifungal assay in SFM culture media; assay type: cell-based; details: in vitro, low cationic conditions
[5] = test system: F. graminearum; assay type: cell-based, Fusarium graminearum; details: in vitro, low cationic conditions
[6] = test system: B. cinerea; test: MIC antifungal assay in SFM culture media (with or without added salts); assay type: cell-based, Botrytis cinerea; details: for antifungal activity relative to the wild-type GMA4C_AC control, B. cinerea: in vitro, low cationic conditions
[7] = test system: Cercospora sojina; test: 96-well plate MIC assay with resazurin viability; assay type: cell-based; details: Table 19; unit not given (peptide concentrations in μM)
[8] = test system: B. cinerea; test: Semi-in planta gray mold assay on detached Nicotiana benthamiana leaves (drop inoculation); assay type: in vivo, Botrytis cinerea; details: for reducing gray mold disease symptoms (lesion sizes): detached N. benthamiana leaves, 1.5 μM, 3 μM and 6 μM, 48 h
[9] = test system: Botrytis cinerea T-4; details: Table 18
[10] = test system: Colletotrichum gloeosporioides; test: 96-well plate MIC assay with resazurin viability; assay type: cell-based; details: Table 19; unit not given (peptide concentrations in μM)
[11] = test system: Alternaria alternata; test: 96-well plate MIC assay with resazurin viability; assay type: cell-based; details: Table 19; unit not given (peptide concentrations in μM)

Row | Compound | MIC Cercospora sojina [7] | MIC (μM) SFM [9] [µM] | MIC (μM) (SFM + 2 mM CaCl2) [9] [µM] | MIC (μM) (SFM + 100 mM NaCl) [9] [µM] | MIC Colletotrichum gloeosporioides [10] | MIC Alternaria alternata [11] | MIC (μM) (SFM + 100 mM KCl) [9] [µM] | also measured
1 | C[C@@H]1[C@H](O)[C@@H](C)/C=C/C=C/C=C/C=C/C=C/C=C/C=C/[C@H](O[C@@H]2O[C@H](C)[C@@H](O)[C@H](N)[C@@H]2O)C[C@@H]2O[C@](O)(C[C@@H](O)C[C@@H](O)[C@H](O)CC[C@@H](O)C[C@@H](O)CC(=O)O[C@H]1C)C[C@H](O)[C@H]2C(=O)O [Amphotericin-B, reference compound] | – | – | – | – | – | – | – | MIC against B. cinerea [1]: 3 µM (≈ 2.77 µg/mL); MIC against F. graminearum ([2]; F. graminearum PH-1, Example 7): 6 µM (≈ 5.54 µg/mL); F. graminearum PH-1 MIC Day 1 [2]: 6 µM
2 | N=C(N)NCCC[C@H](NC(=O)CNC(=O)[C@@H](N)Cc1ccccc1)C(=O)N[C@@H](CS)C(=O)N[C@@H](CCCNC(=N)N)C(=O)NCC(=O)N[C@@H](Cc1ccccc1)C(=O)N[C@@H](CCCNC(=N)N)C(=O)N[C@@H](CCCNC(=N)N)C(=O)N[C@@H](CCCNC(=N)N)C(=O)N[C@@H](CS)C(=O)N[C@@H](Cc1ccccc1)C(=O)N[C@@H](CS)C(=O)N[C@@H](Cc1c[nH]c2ccccc12)C(=O)N[C@@H](CCCNC(=N)N)C(=O)N[C@@H](Cc1c[nH]c2ccccc12)C(=O)N[C@@H](CS)C(N)=O [GMA4C_V4A] (H-FGRCRGFRRRCFCWRWC-NH2; N-terminus assumed) | – | – | – | – | – | – | – | antifungal activity relative to the wild-type GMA4C_AC control, F. oxysporum [3]: equivalent; antifungal activity relative to the wild-type GMA4C_AC control, P. capsici [4]: equivalent; antifungal activity relative to the wild-type GMA4C_AC control, F. graminearum [5]: equivalent; fungal growth inhibition at 6 μM ([6]; B. cinerea, in presence of 2 mM CaCl2, 6 μM): inhibit fungal growth; potency of activity relative to GMA4C_AC ([6]; B. cinerea, in presence of 100 mM NaCl or 100 mM KCl): 2 fold; antifungal activity relative to the wild-type GMA4C_AC control, B. cinerea [6]: equivalent
3 | NCC[C@H](NC(=O)CNC(=O)[C@@H](N)Cc1ccccc1)C(=O)N[C@@H](CS)C(=O)N[C@@H](CCN)C(=O)NCC(=O)N[C@@H](Cc1ccccc1)C(=O)N[C@@H](CCN)C(=O)N[C@@H](CCN)C(=O)N[C@@H](CCN)C(=O)N[C@@H](CS)C(=O)N[C@@H](Cc1ccccc1)C(=O)N[C@@H](CS)C(=O)N[C@@H](Cc1c[nH]c2ccccc12)C(=O)N[C@@H](CCN)C(=O)N[C@@H](Cc1c[nH]c2ccccc12)C(=O)N[C@@H](CS)C(N)=O [GMA4C_V5A, FG(Dab)C(Dab)GF(Dab)(Dab)(Dab)CFCW(Dab)WC-NH2] (H-FG[Dab]C[Dab]GF[Dab][Dab][Dab]CFCW[Dab]WC-NH2; N-terminus assumed) | – | – | – | – | – | – | – | antifungal activity relative to the wild-type GMA4C_AC control, F. oxysporum [3]: equivalent; antifungal activity relative to the wild-type GMA4C_AC control, P. capsici [4]: equivalent; antifungal activity relative to the wild-type GMA4C_AC control, F. graminearum [5]: equivalent; antifungal activity relative to the wild-type GMA4C_AC control, B. cinerea [6]: equivalent
4 | CC[C@H](C)[C@@H]1NC(=O)[C@H](CCCNC(=N)N)NC(=O)[C@H]([C@@H](C)O)NC(=O)[C@H](Cc2ccccc2)NC(=O)[C@H](Cc2c[nH]c3ccccc23)NC(=O)[C@H](Cc2ccccc2)NC(=O)[C@H](CCCNC(=N)N)NC(=O)[C@H](CCCNC(=N)N)NC(=O)[C@H](CC(C)C)NC(=O)[C@H](Cc2ccccc2)NC(=O)CNC(=O)[C@H](CCCCN)NC(=O)[C@@H](NC(=O)[C@H](CCCNC(=N)N)NC(=O)CNC(=O)CN)CSSC[C@@H](C(N)=O)NC1=O [GMA4C_V9] (H-GGRCKGFLRRFWFTRIC-NH2; disulfide 4-17; N-terminus assumed) | 6 | 3 (≈ 6.3 µg/mL) | 12 | 3 | >12 | >12 | – | reducing gray mold disease symptoms (lesion sizes) [8]: effective
5 | CC[C@H](C)[C@@H]1NC(=O)[C@H](CCCNC(=N)N)NC(=O)[C@H]([C@@H](C)O)NC(=O)[C@H](Cc2c[nH]c3ccccc23)NC(=O)[C@H](Cc2ccc(O)cc2)NC(=O)[C@H](Cc2c[nH]c3ccccc23)NC(=O)[C@H](CCCNC(=N)N)NC(=O)[C@H](CCCNC(=N)N)NC(=O)[C@H](CCCNC(=N)N)NC(=O)[C@H](Cc2ccccc2)NC(=O)CNC(=O)[C@H](CCCCN)NC(=O)[C@@H](NC(=O)[C@H](CCCNC(=N)N)NC(=O)CNC(=O)CN)CSSC[C@@H](C(N)=O)NC1=O [GMA4C_V10] (H-GGRCKGFRRRWYWTRIC-NH2; disulfide 4-17; N-terminus assumed) | 6 | 3 (≈ 6.6 µg/mL) | 3 | 3 | >12 | >12 | 3 to 6 | reducing gray mold disease symptoms (lesion sizes) [8]: effective; reducing the symptoms of gray mold, comparison ([8]; low concentrations of 1.5 μM and 3 μM, compared with GMA4C_V9): more effective
6 | C[C@H](NC(=O)CN)C(=O)N[C@H]1CSSC[C@@H](C(N)=O)NC(=O)[C@H](CCCCN)NC(=O)[C@H](CCCCN)NC(=O)[C@H](Cc2ccc(O)cc2)NC(=O)[C@H](Cc2c[nH]c3ccccc23)NC(=O)[C@H](Cc2ccccc2)NC(=O)[C@H](Cc2c[nH]c3ccccc23)NC(=O)[C@H](C)NC(=O)[C@H](Cc2ccccc2)NC(=O)CNC(=O)[C@H](Cc2ccccc2)NC(=O)CNC(=O)[C@H](CCC(N)=O)NC(=O)[C@H](CCCNC(=N)N)NC(=O)[C@H](Cc2c[nH]cn2)NC1=O [GMA5CA_V3] (H-GACHRQGFGFAWFWYKKC-NH2; disulfide 3-18; N-terminus assumed) | 6 | 3 (≈ 6.57 µg/mL) | >12 | >12 | >12 | 3 | >12 | –
7 | C[C@H](NC(=O)CN)C(=O)N[C@H]1CSSC[C@@H](C(N)=O)NC(=O)[C@H](CCCCN)NC(=O)[C@H](CCCCN)NC(=O)[C@H](Cc2ccc(O)cc2)NC(=O)[C@H](Cc2ccccc2)NC(=O)[C@H](Cc2ccccc2)NC(=O)[C@H](Cc2ccccc2)NC(=O)[C@H](C)NC(=O)[C@H](Cc2ccccc2)NC(=O)CNC(=O)[C@H](Cc2ccccc2)NC(=O)CNC(=O)[C@H](CCC(N)=O)NC(=O)[C@H](CCCNC(=N)N)NC(=O)[C@H](Cc2c[nH]cn2)NC1=O [GMA5CA_V4] (H-GACHRQGFGFAFFFYKKC-NH2; disulfide 3-18; N-terminus assumed) | 6 | 3 (≈ 6.33 µg/mL) | >12 | >12 | >12 | 3 | >12 | –
8 | PD81.1.1: SEQ ID NO: 534 with N-terminal alanine; Pinus sylvestris wild-type defensin, expressed in Pichia pastoris (RMCKTPSGKFKGYCVSSTNCKNVCRTEGFPTGSCDFHVASRKCYCYKPC; N-terminal alanine added; listed as Pinus sylvestris) | – | – | – | – | – | – | – | MIC against B. cinerea [1]: 1 µM; F. graminearum PH-1 MIC Day 1 [2]: 1.5 µM

From patent US20260209297A1, “ANTIMICROBIAL PEPTIDES AND MODIFICATIONS THEREOF” (priority 2022, published 2026)
